{"source": "patent US7595330B2", "about": "“Benzimidazole thiophene compounds” (SmithKline Beecham Corporation, priority 2005, dated 2009)", "assay_type_in_all_cases": "cell-based", "key": {"[1]": {"system": "H460", "experiment": "Methylene blue growth inhibition assay, H460", "conditions": "Homo sapiens, NCI-H460; methylene blue, 72 h, H460; read-out: H460 IC50", "method": "(§1) II. Methylene Blue Growth Inhibition Assay—Inhibition of Cell Proliferation by PLK1 Inhibitors\n(§2) Generally, exponentially growing cell lines of different tumor origins, cultured in appropriate media containing 10% fetal bovine serum at 37° C. in a 5% CO2 incubator were plated at low density (less than 2000 cells/well) in 96-well plates. […]. Seventy two hours post-treatment, cell numbers were determined using 100 μl per well of methylene blue (Sigma M9140) (0.5% in 50:50 Ethanol:water). Stain was incubated at room temperature for 30 minutes before plates were rinsed and dye solubilized in 1% N-lauroyl sarcosine, sodium salt, (Sigma L5125, in PBS) (further details of a methylene blue assay are described below). Plates were read on a microplate reader, measuring the OD at 620 nm.\n(§3) . The data are shown in Table 1 below and represent a compilation of several different experiments, each performed using the general parameters outlined above, although minor variations may have been employed in some instances.\n(§4) In one assay, normal human foreskin fibroblasts (HFF), human colon (HCT116, RKO), lung (H460, A549) and breast (MCF7) tumor cell lines were cultured in high glucose DMEM (Life Technologies) containing 10% fetal bovine serum (FBS) at 37° C. in a humidified 5% CO2, 95% air incubator. Cells were harvested using trypsin/EDTA, counted using a haemocytometer, and plated in 100 μL of culture media per well, at the following densities, in a 96-well tissue culture plate (Falcon 3075): HFF 5,000 cells/well, HCT116 3,000 cells/well, RKO 2,500 cells/well, H460 2,500 cells/well, A549 5,000 cells/well, MCF7 4,000 cells/well. The next day, compounds were diluted in low glucose DMEM containing 100 μg/mL gentamicin, at twice the final required concentration, from 10 mM stock solutions in DMSO. 100 μL/well of these dilutions were added to the 100 μL of media currently in the assay plates. Medium containing 0.6% DMSO was added to control wells. The final concentration of DMSO in all wells was 0.3%. Cells were incubated at 37° C., 5% CO2 for 72 h. Medium was removed by aspiration. Cell biomass was estimated by staining cells with 80 μL per well methylene blue (Sigma M9140, 0.5% in 50:50 ethanol:water), and incubation at room temperature for 30-60 min. Stain was removed by aspiration and the plates rinsed by immersion in water, then air-dried. To release stain from the cells, 100 μL of solubilization solution was added (1% N-lauroyl sarcosine, Sodium salt, Sigma L5125, in PBS), and plates were shaken gently for about 30 min. Optical density at 620 nm was measured on a microplate reader. Percent inhibition of cell growth was calculated relative to vehicle treated control wells. […]."}, "[2]": {"system": "RKO", "experiment": "Methylene blue growth inhibition assay, RKO", "conditions": "Homo sapiens, methylene blue, 72 h, read-out: RKO IC50", "method": "as §1, §2, §3, §4"}, "[3]": {"system": "HCT116", "experiment": "Methylene blue growth inhibition assay, HCT116", "conditions": "Homo sapiens, HCT-116; methylene blue, 72 h, HCT116; read-out: HCT116 IC50", "method": "as §1, §2, §3, §4"}, "[4]": {"system": "MDA-MB-468", "experiment": "Cell-Titer-Glo inhibition of cell proliferation, MDA-MB-468", "conditions": "Homo sapiens, CellTiter-Glo, 72 h", "method": "(§5) V. Cell-Titer-Glo—Inhibition of Cell Proliferation by PLK1 Inhibitors\n(§6) Exponentially growing cell lines of different tumor origins, cultured in appropriate media containing 10% fetal bovine serum at 37° C. in a 5% CO2 incubator were plated at low density (less than 2000 cells/well) in 96-well plates. Twenty four hours post-plating, cells were treated with different concentrations of test compounds ranging from 10 uM to 0.04 nM. Several wells were left untreated as a control. Seventy two hours post-treatment, cell numbers were determined using 50-100 ul per well of CellTiter-Glo (Promega #G7573). Plates were incubated at room temperature for 15 minutes and the chemiluminescent signal was read on the Victor V or Envison 2100 reader.\n(§7) The Cell-Titer Glo data are shown in Table 2 below and represent a compilation of several different experiments, each performed using the general parameters outlined above, although minor variations may have been employed in some instances."}, "[5]": {"system": "MX-1", "experiment": "Cell-Titer-Glo inhibition of cell proliferation, MX-1", "conditions": "Homo sapiens, MX1, CellTiter-Glo, 72 h", "method": "as §5, §6, §7"}, "[6]": {"system": "normal human foreskin fibroblasts (HFF)", "experiment": "Methylene blue growth inhibition assay, HFF", "conditions": "Fibroblast, methylene blue, 72 h, HFF normal fibroblasts, read-out: HFF IC50", "method": "as §1, §2, §3, §4"}, "[7]": {"system": "P388", "experiment": "Cell-Titer-Glo inhibition of cell proliferation, P388", "conditions": "Mus musculus, CellTiter-Glo, 72 h", "method": "as §5, §6, §7"}, "[8]": {"system": "MCF7", "experiment": "Methylene blue growth inhibition assay, MCF7", "conditions": "Homo sapiens; methylene blue, 72 h, MCF7; read-out: MCF7 IC50", "method": "as §1, §2, §3, §4"}, "[9]": {"system": "SKOV-3", "experiment": "Cell-Titer-Glo inhibition of cell proliferation, SKOV-3", "conditions": "Homo sapiens, SK-OV-3, CellTiter-Glo, 72 h", "method": "as §5, §6, §7"}, "[10]": {"system": "LNCaP", "experiment": "Cell-Titer-Glo inhibition of cell proliferation, LNCaP", "conditions": "Homo sapiens, CellTiter-Glo, 72 h", "method": "as §5, §6, §7"}, "[11]": {"system": "HCT116", "experiment": "Cell-Titer-Glo inhibition of cell proliferation, HCT116", "conditions": "Homo sapiens, HCT-116, CellTiter-Glo, 72 h", "method": "as §5, §6, §7"}, "[12]": {"system": "A549-L", "experiment": "Cell-Titer-Glo inhibition of cell proliferation, A549-L", "conditions": "CellTiter-Glo, 72 h", "method": "as §5, §6, §7"}}}
{"smiles": "C[C@@H](Oc1cc(-n2cnc3ccc(CN4CCN(C)CC4)cc32)sc1C(N)=O)c1ccccc1C(F)(F)F", "note": "[Example 3, 5-{6-[(4-Methylpipiperazin-1-yl)methyl]-1H-benzimidazol-1-yl}-3-{(1R)-1-[2-(trifluoromethyl)phenyl]ethoxy}thiophene-2-carboxamide]", "values": [{"measurement": "IC50", "setting": "[1]", "value": "< 100", "unit": "nM"}, {"measurement": "IC50", "setting": "[2]", "value": "< 100", "unit": "nM"}, {"measurement": "IC50", "setting": "[3]", "value": "< 100", "unit": "nM"}, {"measurement": "IC50", "setting": "[4]", "value": "< 500", "unit": "nM"}, {"measurement": "IC50", "setting": "[5]", "value": "< 500", "unit": "nM"}, {"measurement": "IC50", "setting": "[6]", "value": "< 100", "unit": "nM"}, {"measurement": "IC50", "setting": "[7]", "value": "< 500", "unit": "nM"}, {"measurement": "IC50", "setting": "[8]", "value": "< 100", "unit": "nM"}, {"measurement": "IC50", "setting": "[9]", "value": "< 500", "unit": "nM"}, {"measurement": "IC50", "setting": "[10]", "value": "< 500", "unit": "nM"}, {"measurement": "IC50", "setting": "[11]", "value": "< 500", "unit": "nM"}, {"measurement": "IC50", "setting": "[12]", "value": "< 500", "unit": "nM"}]}
